Assay results as given in patent US10781189B2, “1,2,4-Oxadiazole and thiadiazole compounds as immunomodulators” (Aurigene Discovery Technologies Limited, priority 2015, dated 2020).

These compounds were tested against T1, Recombinant mouse PD-L1 (Mus musculus, UniProt Q9EP73) (assay: Rescue of mouse splenocyte proliferation in the presence of recombinant PD-L1 (CFSE proliferation assay)). Details: 100 nM compound; CFSE-labelled C57 BL6 mouse splenocytes + anti-CD3/CD28 + PD-L1 (100 ng/mL), 72 h; normalised to stimulated splenocytes as 100%; read-out: Percent rescue of splenocyte proliferation (@100 nM).
T1 construct: Fc (Fc chimera); purchased R&D Systems 1019-B7-100
T1 sequence (Q9EP73 with tags, fused parts or gaps limits assumed): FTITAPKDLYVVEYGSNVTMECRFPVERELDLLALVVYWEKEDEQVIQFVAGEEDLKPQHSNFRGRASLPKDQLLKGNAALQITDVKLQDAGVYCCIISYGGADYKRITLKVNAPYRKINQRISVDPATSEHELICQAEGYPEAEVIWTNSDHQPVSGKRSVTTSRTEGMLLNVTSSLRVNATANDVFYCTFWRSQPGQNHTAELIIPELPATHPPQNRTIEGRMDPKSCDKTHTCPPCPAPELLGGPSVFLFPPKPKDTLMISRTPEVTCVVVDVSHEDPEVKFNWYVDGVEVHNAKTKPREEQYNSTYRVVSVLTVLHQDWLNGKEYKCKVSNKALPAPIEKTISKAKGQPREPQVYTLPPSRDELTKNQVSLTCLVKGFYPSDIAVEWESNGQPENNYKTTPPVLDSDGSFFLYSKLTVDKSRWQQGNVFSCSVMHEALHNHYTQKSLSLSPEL
Format: cell-based
Description: Example 15: Rescue of Mouse Splenocyte Proliferation in the Presence of Recombinant PD-L1
Recombinant mouse PD-L1 (rm-PDL-1, cat no: 1019-B7-100; R&D Systems) were used as the source of PD-L1.
Mouse splenocytes harvested from 6-8 weeks old C57 BL6 mice; RPMI 1640 (GIBCO, Cat #11875); DMEM with high glucose (GIBCO, Cat # D6429); Fetal Bovine Serum [Hyclone, Cat # SH30071.03]; Penicillin (10000 unit/mL)-Streptomycin (10,000 μg/mL) Liquid (GIBCO, Cat #15140-122); MEM Sodium Pyruvate solution 100 mM (100×), Liquid (GIBCO, Cat #11360); Nonessential amino acid (GIBCO, Cat #11140); L-Glutamine (GIBCO, Cat #25030); Anti-CD3 antibody (eBiosciences—16-0032); Anti-CD28 antibody (eBiosciences—16-0281); ACK lysis buffer (1 mL) (GIBCO, Cat #-A10492); Histopaque (density-1.083 gm/mL) (SIGMA 10831); Trypan blue solution (SIGMA-T8154); 2 mL Norm Ject Luer Lock syringe-(Sigma 2014-12); 40 μm nylon cell strainer (BD FALCON 35230); Hemacytometer (Bright line-SIGMA Z359629); FACS Buffer (PBS/0.1% BSA): Phosphate Buffered Saline (PBS) pH 7.2 (HiMedia TS1006) with 0.1% Bovine Serum Albumin (BSA) (SIGMA A7050) and sodium azide (SIGMA 08591); 5 mM stock solution of CFSE: CFSE stock solution was prepared by diluting lyophilized CFSE with 180 μL of Dimethyl sulfoxide (DMSO C2H6SO, SIGMA-D-5879) and aliquoted in to tubes for further use. Working concentrations were titrated from 10 μM to 1 μM. (eBioscience—650850-85); 0.05% Trypsin and 0.02% EDTA (SIGMA 59417C); 96-well format ELISA plates (Corning CLS3390); BD FACS caliber (E6016); Recombinant mouse B7-H1/PDL1 Fc Chimera, (rm-PD-L1 cat no: 1019-B7-100).
Splenocytes harvested in a 50 mL falcon tube by mashing mouse spleen in a 40 μm cell strainer were further treated with 1 mL ACK lysis buffer for 5 min at room temperature. After washing with 9 mL of RPMI complete media, cells were re-suspended in 3 mL of 1×PBS in a 15 mL tube. 3 mL of Histopaque was added carefully to the bottom of the tube without disturbing overlaying splenocyte suspension. After centrifuging at 800×g for 20 min at room temperature, the opaque layer of splenocytes was collected carefully without disturbing/mixing the layers. Splenocytes were washed twice with cold 1×PBS followed by total cell counting using Trypan Blue exclusion method and used further for cell based assays.
Splenocytes were cultured in RPMI complete media (RPMI+10% fetal bovine serum+1 mM sodium pyruvate+10,000 units/mL penicillin and […] streptomycin) and maintained in a CO2 incubator with 5% CO2 at 37° C.
CFSE is a dye that passively diffuses into cells and binds to intracellular proteins. 1×10^6 cells/mL of harvested splenocytes were treated with 5 μM of CFSE in pre-warmed 1×PBS/0.1% BSA solution for 10 min at 37° C. Excess CFSE was quenched using 5 volumes of ice-cold culture media to the cells and incubated on ice for 5 min. CFSE labelled splenocytes were further given three washes with ice cold complete RPMI media. CFSE labelled 1×10^5 splenocytes added to wells containing either MDA-MB231 cells (1×10^5 cells cultured in high glucose DMEM medium) or recombinant human PDL-1 (100 ng/mL) and test compounds. Splenocytes were stimulated with anti-mouse CD3 and anti-mouse CD28 antibody (1 μg/mL each) and the culture was further incubated for 72 h at 37° C. with 5% CO2. Cells were harvested and washed thrice with ice cold FACS buffer and % proliferation was analysed by flow cytometry with 488 nm excitation and 521 nm emission filters.
Percent splenocyte proliferation was analysed using cell quest FACS program and percent rescue of splenocyte proliferation by compound was estimated after deduction of % background proliferation value and normalising to % stimulated splenocyte proliferation (positive control) as 100%.
Stimulated splenocytes: Splenocytes+anti-CD3/CD28 stimulation
Background proliferation: Splenocytes+anti-CD3/CD28+PD-L1
Compound proliferation: Splenocytes+anti-CD3/CD28+PD-L1+Compound […]

Row | activation at 0.1 µM [%] | Compound
1 | 51 | CC(O)[C@H](NC(=O)N1CCC[C@H]1c1nc([C@@H](N)Cc2ccc(O)cc2)no1)C(=O)O (stereo partly shown) [Compound 21]
2 | 17 | N[C@@H](CCC(=O)O)c1noc([C@@H]2CCCN2C(=O)N[C@@H](CC(=O)O)C(=O)O)n1 [Compound 24]
3 | 84 | CCC(C)[C@H](N)c1noc([C@H](CC(N)=O)NC(=O)N[C@H](C(=O)O)C(C)O)n1 (stereo partly shown) [Compound 9]
4 | 37 | CC(=O)NCCCC[C@H](NC(=O)N[C@H](C(=O)O)C(C)O)c1nc([C@@H](N)CO)no1 (stereo partly shown) [Compound 27]
5 | 71 | CC(O)[C@H](NC(=O)N[C@H](c1nc([C@@H](N)CO)no1)C(C)C)C(=O)O (stereo partly shown) [Compound 44]
6 | 59 | CC(O)[C@H](NC(=O)N[C@@H](CC(=O)O)c1nc([C@@H](N)Cc2cnc[nH]2)no1)C(=O)O (stereo partly shown) [Compound 34]
7 | 50 | CC(O)[C@H](NC(=O)N[C@@H](CC(N)=O)c1nc([C@@H](N)Cc2ccc(O)cc2)no1)C(=O)O (stereo partly shown) [Compound 42]
8 | 36 | NC(=O)CC[C@H](NC(=O)N[C@@H](CC(N)=O)c1nc([C@@H](N)CO)no1)C(=O)O [Compound 28]
9 | 49 | N[C@@H](CC(=O)O)c1noc([C@@H]2CCCN2C(=O)N[C@@H](CC(=O)O)C(=O)O)n1 [Compound 23]
10 | 67 | CCCCCCNC(=O)CC[C@@H](NC(=O)N[C@H](C(=O)O)C(C)O)c1nc([C@@H](N)CO)no1 (stereo partly shown) [Compound 76]
11 | 71 | CCC(C)[C@H](N)c1noc([C@@H](NC(=O)N[C@H](C(=O)O)C(C)O)C(C)CC)n1 (stereo partly shown) [Compound 52]
12 | 92 | CC(O)[C@H](NC(=O)N[C@@H](Cc1ccccc1)c1nc([C@@H](N)CO)no1)C(=O)O (stereo partly shown) [Compound 14]
13 | 71 | NC(=O)C[C@H](NS(=O)(=O)C1CC1)c1nc([C@@H](N)CO)no1 [Compound 84]
14 | 119 | CCCNC(=O)CC[C@H](NC(=O)N[C@H](C(=O)O)C(C)O)c1nc([C@@H](N)CO)no1 (stereo partly shown) [Compound 75]
15 | 60 | CC(O)[C@H](NC(=O)N[C@@H](Cc1c[nH]c2ccccc12)c1nc([C@@H](N)CO)no1)C(=O)O (stereo partly shown) [Compound 43]
16 | 42 | NCCCC[C@H](N)c1noc([C@H](CC(N)=O)NC(=O)N[C@@H](CO)C(=O)O)n1 [Compound 31]
